Here are results for 21 molecules from patent publication US9938261B2, “Heterocyclic compounds and methods of use thereof” (AMBIT BIOSCIENCES CORPORATION, priority 2011, dated 2018).

Common to all, as to settings: competition binding
One experiment deals with T1, KIT (Homo sapiens, UniProt P10721).
T1 construct: made in house
The experiment in a line: Competition binding assay, KIT Kd. Put shortly: (§1)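 Read-out is quantitative PCR of kinase recovered from affinity beads after competition with test compound. Binding reached equilibrium over 1 hour at room temperature; Kd values come from eleven-point threefold serial dilutions.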

The target in the next experiment is T2, FLT3 (Homo sapiens, UniProt P36888).
T2 construct: made in house
T2 sequence (P36888 27-993): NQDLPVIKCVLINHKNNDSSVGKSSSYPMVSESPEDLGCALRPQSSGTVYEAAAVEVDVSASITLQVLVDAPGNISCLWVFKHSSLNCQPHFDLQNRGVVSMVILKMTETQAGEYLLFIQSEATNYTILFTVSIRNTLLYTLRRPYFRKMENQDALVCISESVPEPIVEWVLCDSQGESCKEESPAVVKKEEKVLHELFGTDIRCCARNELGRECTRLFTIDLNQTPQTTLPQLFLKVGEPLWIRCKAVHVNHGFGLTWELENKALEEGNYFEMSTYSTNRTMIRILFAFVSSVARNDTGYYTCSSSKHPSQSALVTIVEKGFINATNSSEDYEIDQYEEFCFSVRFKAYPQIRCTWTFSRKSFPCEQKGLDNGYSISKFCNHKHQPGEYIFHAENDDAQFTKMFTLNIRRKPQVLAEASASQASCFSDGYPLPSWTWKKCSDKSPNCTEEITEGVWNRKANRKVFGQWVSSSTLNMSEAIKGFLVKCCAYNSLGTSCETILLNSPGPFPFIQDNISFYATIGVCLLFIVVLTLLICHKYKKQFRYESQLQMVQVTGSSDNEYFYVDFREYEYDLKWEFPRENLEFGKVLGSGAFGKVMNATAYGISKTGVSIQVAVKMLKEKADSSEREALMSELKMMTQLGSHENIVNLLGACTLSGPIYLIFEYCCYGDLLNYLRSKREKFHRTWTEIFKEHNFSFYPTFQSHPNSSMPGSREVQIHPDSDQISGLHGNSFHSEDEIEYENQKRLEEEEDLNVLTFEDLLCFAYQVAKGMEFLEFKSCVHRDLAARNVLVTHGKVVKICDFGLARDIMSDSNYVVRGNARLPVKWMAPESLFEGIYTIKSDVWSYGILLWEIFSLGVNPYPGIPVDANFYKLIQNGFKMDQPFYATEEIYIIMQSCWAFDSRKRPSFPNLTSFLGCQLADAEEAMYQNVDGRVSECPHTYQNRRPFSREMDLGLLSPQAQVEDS
The experiment in a line: Competition binding assay, FLT3 Kd. Put shortly: as §1

Another experiment concerns the target CSF1R (Homo sapiens, UniProt P07333). The experiment in a line: Competition binding assay, CSF1R Kd. Set-up: made in house. An outline of the steps:
as §1

As a reminder, the Kd is the free concentration of one partner at which half of the binding sites on the other are occupied at equilibrium, for simple one-to-one binding. Higher therefore signals lower affinity.

SMILES strings stand for the structures.

T1 sequence (P10721 26-976): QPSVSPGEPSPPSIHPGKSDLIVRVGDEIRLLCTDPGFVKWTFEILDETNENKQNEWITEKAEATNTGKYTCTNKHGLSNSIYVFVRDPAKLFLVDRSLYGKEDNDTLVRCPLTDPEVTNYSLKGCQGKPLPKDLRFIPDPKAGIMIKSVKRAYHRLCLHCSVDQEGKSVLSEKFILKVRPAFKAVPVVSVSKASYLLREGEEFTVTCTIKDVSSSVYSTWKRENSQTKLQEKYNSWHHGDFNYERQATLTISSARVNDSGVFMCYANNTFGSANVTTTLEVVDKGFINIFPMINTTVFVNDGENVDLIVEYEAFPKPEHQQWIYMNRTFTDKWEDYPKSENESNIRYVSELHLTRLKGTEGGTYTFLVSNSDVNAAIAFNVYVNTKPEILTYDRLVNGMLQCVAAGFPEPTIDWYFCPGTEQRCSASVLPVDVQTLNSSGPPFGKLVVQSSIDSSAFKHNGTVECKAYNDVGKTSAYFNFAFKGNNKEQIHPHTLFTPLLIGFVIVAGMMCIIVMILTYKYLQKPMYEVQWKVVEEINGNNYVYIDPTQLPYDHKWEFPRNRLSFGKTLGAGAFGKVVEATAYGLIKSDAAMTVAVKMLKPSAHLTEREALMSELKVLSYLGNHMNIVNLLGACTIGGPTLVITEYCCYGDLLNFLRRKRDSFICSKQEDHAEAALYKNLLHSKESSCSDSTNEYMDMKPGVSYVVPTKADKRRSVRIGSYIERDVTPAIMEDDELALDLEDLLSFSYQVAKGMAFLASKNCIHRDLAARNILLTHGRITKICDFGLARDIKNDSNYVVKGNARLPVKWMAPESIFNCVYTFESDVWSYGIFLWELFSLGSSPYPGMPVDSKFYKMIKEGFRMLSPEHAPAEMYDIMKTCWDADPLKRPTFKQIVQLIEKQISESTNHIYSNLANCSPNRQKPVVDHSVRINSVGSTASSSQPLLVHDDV
Chain of CSF1R (P07333 20-972): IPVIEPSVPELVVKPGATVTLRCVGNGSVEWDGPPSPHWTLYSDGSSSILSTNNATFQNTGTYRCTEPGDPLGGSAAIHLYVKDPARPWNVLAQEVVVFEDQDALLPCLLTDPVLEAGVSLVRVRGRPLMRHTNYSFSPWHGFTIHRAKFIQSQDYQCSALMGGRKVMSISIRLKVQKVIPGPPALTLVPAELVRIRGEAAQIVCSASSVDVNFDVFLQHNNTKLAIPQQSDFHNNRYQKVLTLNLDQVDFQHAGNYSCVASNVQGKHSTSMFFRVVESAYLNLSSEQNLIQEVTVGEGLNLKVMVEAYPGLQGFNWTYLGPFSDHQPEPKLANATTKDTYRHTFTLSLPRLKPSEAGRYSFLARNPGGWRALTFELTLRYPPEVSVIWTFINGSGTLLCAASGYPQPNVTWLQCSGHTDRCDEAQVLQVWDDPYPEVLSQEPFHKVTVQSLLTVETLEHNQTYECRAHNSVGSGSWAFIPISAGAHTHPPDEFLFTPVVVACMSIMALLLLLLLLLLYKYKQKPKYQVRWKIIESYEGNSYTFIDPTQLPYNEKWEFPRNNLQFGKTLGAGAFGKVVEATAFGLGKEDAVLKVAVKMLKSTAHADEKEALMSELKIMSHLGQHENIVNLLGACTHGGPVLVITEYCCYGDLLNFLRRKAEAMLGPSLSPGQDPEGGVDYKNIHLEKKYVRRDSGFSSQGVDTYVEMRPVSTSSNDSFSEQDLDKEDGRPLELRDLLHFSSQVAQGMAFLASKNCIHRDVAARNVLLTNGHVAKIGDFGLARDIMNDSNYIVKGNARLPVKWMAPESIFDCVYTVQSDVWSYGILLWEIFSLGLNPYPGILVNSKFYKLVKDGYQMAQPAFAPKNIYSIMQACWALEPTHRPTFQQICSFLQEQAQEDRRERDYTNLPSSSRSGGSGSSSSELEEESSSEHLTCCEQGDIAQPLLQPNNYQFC

In the case of `COc1ccc2ncc(Cc3ccc4nc(N[C@@H]5CCCC[C@H]5O)sc4c3)n2c1` [Example 165, (1R,2R)-2-((6-((6-methoxyimidazo[1,2-a]pyridin-3-yl)methyl)benzo[d]thiazol-2-yl)amino)cyclohexanol], the dissociation constant Kd on KIT is 500 to 2000 nM; on FLT3, > 5000 nM; at CSF1R it was 5 to 20 nM.
In the case of `O[C@@H]1CCCC[C@H]1Nc1nc2c(Br)cc(Cn3cnc4cccnc43)cc2s1` [Example 166, (1R,2R)-2-((6-((3H-imidazo[4,5-b]pyridin-3-yl)methyl)-4-bromobenzo[d]thiazol-2-yl)amino)cyclohexanol], the results for the Kd at KIT, at FLT3 and at CSF1R were 500 to 2000 nM, 200 to 1000 nM and 5 to 20 nM, respectively.
Regarding `O[C@@H]1CCCC[C@H]1Nc1nc2ccc(Cc3cnc4cc(-n5cccn5)ccn34)cc2s1` [Example 167, (1R,2R)-2-((6-((7-(1H-pyrazol-1-yl)imidazo[1,2-a]pyridin-3-yl)methyl)benzo[d]thiazol-2-yl)amino)cyclohexanol], the dissociation constant Kd was 100 to 500 nM on KIT, 1000 to 5000 nM at FLT3 and ≤ 5 nM on CSF1R.
In the case of `O[C@@H]1CCCC[C@H]1Nc1nc2c(F)cc(Cn3cnc4cccnc43)c(F)c2s1` [Example 168, (1R,2R)-2-((6-((3H-imidazo[4,5-b]pyridin-3-yl)methyl)-4,7-difluorobenzo[d]thiazol-2-yl)amino)cyclohexanol], the Kd on KIT was > 2000 nM; at FLT3, 1000 to 5000 nM; on CSF1R it was 5 to 20 nM.
The matching figures for `O[C@@H]1CCCC[C@H]1Nc1nc2ccc(Cc3cnc4cc(-n5cncn5)ccn34)cc2s1` [Example 169, (1R,2R)-2-((6-((7-(1H-1,2,4-triazol-1-yl)imidazo[1,2-a]pyridin-3-yl)methyl)benzo[d]thiazol-2-yl)amino)cyclohexanol]: 500 to 2000 nM, 1000 to 5000 nM and 5 to 20 nM.
The matching figures for `N#Cc1ccc2c(c1)ncn2Cc1ccc2nc(N[C@@H]3CCCC[C@H]3O)oc2c1` [Example 170, 1-((2-(((1R,2R)-2-hydroxycyclohexyl)amino)benzo[d]oxazol-6-yl)methyl)-1H-benzo[d]imidazole-5-carbonitrile]: > 2000 nM, > 5000 nM and > 50 nM.
Take `O[C@@H]1CCCC[C@H]1Nc1nc2ccc(Cn3cnc4cc(OCCN5CCOCC5)ccc43)cc2s1` [Example 171, (1R,2R)-2-((6-((5-(2-morpholinoethoxy)-1H-benzo[d]imidazol-1-yl)methyl)benzo[d]thiazol-2-yl)amino)cyclohexanol]: the Kd on KIT was ≤ 100 nM; on FLT3, 200 to 1000 nM; at CSF1R, 5 to 20 nM.
Taken in the same sequence, the figures for `OCCOc1ccc2c(c1)ncn2Cc1ccc2nc(N[C@@H]3CCCC[C@H]3O)sc2c1` [Example 172, (1R,2R)-2-((6-((5-(2-hydroxyethoxy)-1H-benzo[d]imidazol-1-yl)methyl)benzo[d]thiazol-2-yl)amino)cyclohexanol] were 100 to 500 nM, 200 to 1000 nM and ≤ 5 nM.
As to `CNC(=O)c1ccc2c(c1)ncn2Cc1ccc2nc(N[C@@H]3CCCC[C@H]3O)sc2c1` [Example 173, 1-((2-(((1R,2R)-2-hydroxycyclohexyl)amino)benzo[d]thiazol-6-yl)methyl)-N-methyl-1H-benzo[d]imidazole-5-carboxamide], the Kd was in the range of 100 to 500 nM at KIT, 200 to 1000 nM on FLT3 and 5 to 20 nM on CSF1R.
Take `C=C(c1ccc2c(c1)ncn2Cc1ccc2nc(N[C@@H]3CCCC[C@H]3O)sc2c1)C(F)(F)F` [Example 175, (1R,2R)-2-((6-((5-(3,3,3-trifluoroprop-1-en-2-yl)-1H-benzo[d]imidazol-1-yl)methyl)benzo[d]thiazol-2-yl)amino)cyclohexanol]: the values for the dissociation constant Kd at KIT, on FLT3 and at CSF1R were 100 to 500 nM, 200 to 1000 nM and 5 to 20 nM, respectively.
Take `Fc1cnc2c(c1)ncn2Cc1ccc2nc(N[C@H]3C=CCCC3)sc2c1` [Example 176, (R)—N-(cyclohex-2-en-1-yl)-6-((6-fluoro-3H-imidazo[4,5-b]pyridin-3-yl)methyl)benzo[d]thiazol-2-amine]: the equilibrium dissociation constant (Kd) lay in the range of 100 to 500 nM on KIT, 1000 to 5000 nM at FLT3 and 5 to 20 nM on CSF1R.
For the molecule `N#Cc1ccc2ncc(Cc3ccc4nc(N[C@@H]5CCCC[C@H]5O)sc4c3)n2n1` [Example 221, 3-((2-(((1R,2R)-2-hydroxycyclohexyl)amino)benzo[d]thiazol-6-yl)methyl)imidazo[1,2-b]pyridazine-6-carbonitrile], the equilibrium dissociation constant (Kd) is ≤ 100 nM at KIT, ≤ 200 nM on FLT3 and ≤ 5 nM on CSF1R.
In the case of `O=c1c(N2CCOCC2)nccn1Cc1ccc2nc(N[C@@H]3CCCC[C@H]3O)sc2c1` [Example 222, 1-((2-(((1R,2R)-2-hydroxycyclohexyl)amino)benzo[d]thiazol-6-yl)methyl)-3-morpholinopyrazin-2(1H)-one], the Kd at KIT is > 2000 nM; on FLT3, > 5000 nM; at CSF1R, 20 to 50 nM.
On to `O=C(c1ccn2c(Cc3ccc4nc(N[C@@H]5CCCC[C@H]5O)sc4c3)cnc2c1)N1CCCC1` [Example 223, (3-((2-(((1R,2R)-2-hydroxycyclohexyl)amino)benzo[d]thiazol-6-yl)methyl)imidazo[1,2-a]pyridin-7-yl)(pyrrolidin-1-yl)methanone], for which the Kd at KIT was 100 to 500 nM; on FLT3, 1000 to 5000 nM; at CSF1R, 5 to 20 nM.
For `O=C(O)/C=C/c1ccc2c(c1)ncn2Cc1ccc2nc(N[C@@H]3CCCC[C@H]3O)sc2c1` [Example 224, (E)-3-(1-((2-(((1R,2R)-2-hydroxycyclohexyl)amino)benzo[d]thiazol-6-yl)methyl)-1H-benzo[d]imidazol-5-yl)acrylic acid], the Kd at KIT was ≤ 100 nM; on FLT3, 200 to 1000 nM; at CSF1R, 5 to 20 nM.
For `O[C@@H]1CCCC[C@H]1Nc1nc2ccc(Cn3cnc4cc(-n5ccnc5)ccc43)cc2s1` [Example 226, (1R,2R)-2-((6-((5-(1H-imidazol-1-yl)-1H-benzo[d]imidazol-1-yl)methyl)benzo[d]thiazol-2-yl)amino)cyclohexanol], the equilibrium dissociation constant (Kd) is ≤ 100 nM at KIT, 200 to 1000 nM at FLT3 and ≤ 5 nM at CSF1R.
The matching figures for `Cn1nnc(-c2ccc3c(c2)ncn3Cc2ccc3nc(N[C@@H]4CCCC[C@H]4O)sc3c2)n1` [Example 227, (1R,2R)-2-((6-((5-(2-methyl-2H-tetrazol-5-yl)-1H-benzo[d]imidazol-1-yl)methyl)benzo[d]thiazol-2-yl)amino)cyclohexanol]: 100 to 500 nM, 1000 to 5000 nM and 5 to 20 nM.
Taken in the same sequence, the figures for `O[C@H]1[C@@H](O)CCC[C@H]1Nc1nc2ccc(Cn3cnc4cc(F)cnc43)cc2s1` [Example 228, (1S,2R,3R)-3-((6-((6-fluoro-3H-imidazo[4,5-b]pyridin-3-yl)methyl)benzo[d]thiazol-2-yl)amino)cyclohexane-1,2-diol] were 500 to 2000 nM, > 5000 nM and > 50 nM.
On to `O[C@@H]1[C@H](O)CCC[C@H]1Nc1nc2ccc(Cc3cnc4cc(-n5cccn5)ccn34)cc2s1` [Example 229, (1R,2S,3R)-3-((6-((7-(1H-pyrazol-1-yl)imidazo[1,2-a]pyridin-3-yl)methyl)benzo[d]thiazol-2-yl)amino)cyclohexane-1,2-diol], for which the dissociation constant Kd at KIT was ≤ 100 nM; at FLT3, 200 to 1000 nM; on CSF1R, 5 to 20 nM.
Take `O[C@@H]1[C@H](O)CCC[C@H]1Nc1nc2ccc(Cc3cnc4cc(-n5nccn5)ccn34)cc2s1` [Example 231, (1R,2S,3R)-3-((6-((7-(2H-1,2,3-triazol-2-yl)imidazo[1,2-a]pyridin-3-yl)methyl)benzo[d]thiazol-2-yl)amino)cyclohexane-1,2-diol]: the dissociation constant (Kd) fell in the range of 500 to 2000 nM on KIT, 1000 to 5000 nM on FLT3 and 5 to 20 nM at CSF1R.
Turning to `C=Cc1ccc2c(c1)ncn2Cc1ccc2nc(N[C@@H]3CCC[C@@H](O)[C@H]3O)sc2c1` [Example 232, (1R,2S,3R)-3-((6-((5-vinyl-1H-benzo[d]imidazol-1-yl)methyl)benzo[d]thiazol-2-yl)amino)cyclohexane-1,2-diol], the dissociation constant (Kd) at KIT was ≤ 100 nM; at FLT3, ≤ 200 nM; at CSF1R, ≤ 5 nM.
